Tests used:
KRAS G12C = KRAS G12C (Homo sapiens, UniProt P01116, G12C); assay: GDP-GTP exchange assay (KRAS_G12C exchange); assay type: biochemical; conditions: bodipy-GDP loaded KRAS G12C 2.5 nM, SOS1 150 nM, GppNHp; 2 hours pre-incubation, 2 hours reaction; read-out: G12C_exchange
Method in brief: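 Fluorescence exchange of bodipy-GDP for GppNHp, SOS1-driven, read at 485/520 nm; IC50 from four-parameter variable-slope fit. Both mutants used 2.5 nM final labelled protein and a 2 h compound pre-incubation. G12C reaction had 500 uM GppNHp and 150 nM SOS1 for 2 h; G12D ran 4 h.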

[1] = tested on: MIA PaCa-2 (KRAS G12C) cells; assay: Cellular pERK HTRF assay (KRAS_G12C pERK); assay type: cell-based, human; conditions: Homo sapiens, MIA PaCa-2, 4 hours incubation, read-out: G12C_pERK
Method in brief: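 MIA PaCa-2 cells plated overnight, then exposed to compound for 4 h at 37 °C (G12C compounds). Phospho-ERK1/2 measured in lysates by HTRF (665/620 nm) after overnight antibody incubation; IC50 from percent inhibition versus log concentration.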

Chain of KRAS G12C (P01116 1-188 isoform P01116-2 G12C): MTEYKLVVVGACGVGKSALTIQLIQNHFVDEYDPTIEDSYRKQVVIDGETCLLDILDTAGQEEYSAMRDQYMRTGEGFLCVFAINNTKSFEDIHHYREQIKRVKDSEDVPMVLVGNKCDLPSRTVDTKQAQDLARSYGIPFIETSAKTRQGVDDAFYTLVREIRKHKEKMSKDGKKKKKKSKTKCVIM

| Structure (SMILES) | IC50 (KRAS G12C) | IC50 [1] |
| --- | --- | --- |
| C=CC(=O)N1CC[C@H](n2nnc3c(-n4ccnc4C)nc4c(F)c(-c5ccccc5)c(C)cc4c32)C[C@H]1CC#N [Example 156, 2-((2S,4S)-1-acryloyl-4-(6-fluoro-8-methyl-4-(2-methyl-1H-imidazol-1-yl)-7-phenyl-1H-[1,2,3]triazolo[4,5-c]quinolin-1-yl)piperidin-2-yl)acetonitrile] | ≤ 100 nM | ≤ 100 nM |
| Cc1cc2c(nc(OC[C@@H]3CCCN3C)c3nnn([C@H]4CCN(C(=O)/C=C/CN(C)C)[C@H](CC#N)C4)c32)c(F)c1-c1ccccc1C(F)(F)F [Example 158a, 2-((2S,4S)-1-((E)-4-(dimethylamino)but-2-enoyl)-4-(6-fluoro-8-methyl-4-(((S)-1-methylpyrrolidin-2-yl)methoxy)-7-(2-(trifluoromethyl)phenyl)-1H-[1,2,3]triazolo[4,5-c]quinolin-1-yl)piperidin-2-yl)acetonitrile] | ≤ 100 nM | ≤ 100 nM |
| Cc1cc2c(nc(OC[C@@H]3CCCN3C)c3nnn([C@H]4CCN(C(=O)/C=C/C(F)F)[C@H](CC#N)C4)c32)c(F)c1-c1ccccc1C(F)(F)F [Example 161a, 2-((2S,4S)-1-((E)-4,4-difluorobut-2-enoyl)-4-(6-fluoro-8-methyl-4-(((S)-1-methylpyrrolidin-2-yl)methoxy)-7-(2-(trifluoromethyl)phenyl)-1H-[1,2,3]triazolo[4,5-c]quinolin-1-yl)piperidin-2-yl)acetonitrile] | ≤ 100 nM | ≤ 100 nM |
| CC#CC(=O)N1CC[C@H](n2nnc3c(OC[C@@H]4CCCN4C)nc4c(F)c(-c5ccccc5C(F)(F)F)c(C)cc4c32)C[C@H]1CC#N [Example 162a, 2-((2S,4S)-1-(but-2-ynoyl)-4-(6-fluoro-8-methyl-4-(((S)-1-methylpyrrolidin-2-yl)methoxy)-7-(2-(trifluoromethyl)phenyl)-1H-[1,2,3]triazolo[4,5-c]quinolin-1-yl)piperidin-2-yl)acetonitrile] | ≤ 100 nM | ≤ 100 nM |
| CC#CC(=O)N1CC[C@H](n2nnc3c(N4CC(N(C)C)C4)nc4c(F)c(-c5ccccc5C(F)(F)F)c(C)cc4c32)C[C@H]1CC#N [Example 166a, 2-((2S,4S)-1-(but-2-ynoyl)-4-(4-(3-(dimethylamino)-azetidin-1-yl)-6-fluoro-8-methyl-7-(2-(trifluoromethyl)-phenyl)-1H-[1,2,3]triazolo-[4,5-c]quinolin-1-yl)piperidin-2-yl)acetonitrile] | ≤ 100 nM | ≤ 100 nM |
| C=CC(=O)N1CC[C@H](n2nnc3c(N4CC(N(C)C)C4)nc4c(F)c(-c5c(C)c(Cl)cc6[nH]ncc56)c(C#N)cc4c32)C[C@H]1CC#N [Example 169, 1-((2S,4S)-1-acryloyl-2-(cyanomethyl)piperidin-4-yl)-7-(6-chloro-5-methyl-1H-indazol-4-yl)-4-(3-(dimethylamino)azetidin-1-yl)-6-fluoro-1H-[1,2,3]triazolo[4,5-c]quinoline-8-carbonitrile] | ≤ 100 nM | ≤ 100 nM |
| CC#CC(=O)N1CC[C@H](n2nnc3c(N4CC(N(C)C)C4)nc4c(F)c(-c5c(C)c(Cl)cc6[nH]ncc56)c(C#N)cc4c32)C[C@H]1CC#N [Example 170, 1-((2S,4S)-1-(but-2-ynoyl)-2-(cyanomethyl)piperidin-4-yl)-7-(6-chloro-5-methyl-1H-indazol-4-yl)-4-(3-(dimethylamino)azetidin-1-yl)-6-fluoro-1H-[1,2,3]triazolo[4,5-c]quinoline-8-carbonitrile] | ≤ 100 nM | ≤ 100 nM |
| C=CC(=O)N1CC[C@H](n2cnc3c(N4CC(N(C)C)C4)nc4cc(-c5cccc(Cl)c5C)c(Cl)cc4c32)C[C@H]1CC#N [Example 171, 2-((2S,4S)-1-acryloyl-4-(8-chloro-7-(3-chloro-2-methylphenyl)-4-(3-(dimethylamino)azetidin-1-yl)-1H-imidazo[4,5-c]quinolin-1-yl)piperidin-2-yl)acetonitrile] | ≤ 100 nM | ≤ 100 nM |
| C=CC(=O)N1CC[C@H](n2nnc3c(N4CC(N(C)C)C4)nc4cc(-c5cccc(Cl)c5C)c(C)cc4c32)C[C@H]1CC#N [Example 172, 2-((2S,4S)-1-acryloyl-4-(7-(3-chloro-2-methylphenyl)-4-(3-(dimethylamino)azetidin-1-yl)-8-methyl-1H-[1,2,3]triazolo[4,5-c]quinolin-1-yl)piperidin-2-yl)acetonitrile] | ≤ 100 nM | ≤ 100 nM |
| C=CC(=O)N1CC[C@H](n2cnc3c(-c4cccnc4C)nc4c(F)c(-c5cccc(Cl)c5C)c(Cl)cc4c32)C[C@H]1CC#N [Example 173, 2-((2S,4S)-1-acryloyl-4-(8-chloro-7-(3-chloro-2-methylphenyl)-6-fluoro-4-(2-methylpyridin-3-yl)-1H-imidazo[4,5-c]quinolin-1-yl)piperidin-2-yl)acetonitrile] | ≤ 100 nM | ≤ 100 nM |
| C=CC(=O)N1CC[C@H](n2nnc3c(-c4cccnc4C)nc4c(F)c(-c5cccc(Cl)c5C)c(Cl)cc4c32)C[C@H]1CC#N [Example 174, 2-((2S,4S)-1-acryloyl-4-(8-chloro-7-(3-chloro-2-methylphenyl)-6-fluoro-4-(2-methylpyridin-3-yl)-1H-[1,2,3]triazolo[4,5-c]quinolin-1-yl)piperidin-2-yl)acetonitrile] | ≤ 100 nM | ≤ 100 nM |
| CN(C)C/C=C/C(=O)N1CC[C@H](n2cnc3c(N4CC(N(C)C)C4)nc4c(F)c(-c5cncc6ccccc56)c(Cl)cc4c32)C[C@H]1CC#N [Example 175, 2-((2S,4S)-4-(8-chloro-4-(3-(dimethylamino)azetidin-1-yl)-6-fluoro-7-(isoquinolin-4-yl)-1H-imidazo[4,5-c]quinolin-1-yl)-1-((E)-4-(dimethylamino)but-2-enoyl)piperidin-2-yl)acetonitrile] | ≤ 100 nM | ≤ 100 nM |
| Cc1c(Cl)cc2[nH]ncc2c1-c1c(Cl)cc2c(nc(N3CC(N(C)C)C3)c3ncn([C@H]4CCN(C(=O)/C=C/CN(C)C)[C@H](CC#N)C4)c32)c1F [Example 176, 2-((2S,4S)-4-(8-chloro-7-(6-chloro-5-methyl-1H-indazol-4-yl)-4-(3-(dimethylamino)-azetidin-1-yl)-6-fluoro-1H-imidazo[4,5-c]quinolin-1-yl)-1-((E)-4-(dimethylamino)but-2-enoyl)piperidin-2-yl)acetonitrile] | ≤ 100 nM | ≤ 100 nM |
| CC#CC(=O)N1CC[C@H](n2cnc3c(N4CC(N(C)C)C4)nc4c(F)c(-c5c(C)c(Cl)cc6[nH]ncc56)c(Cl)cc4c32)C[C@H]1CC#N [Example 177a, 2-((2S,4S)-1-(but-2-ynoyl)-4-(8-chloro-7-(6-chloro-5-methyl-1H-indazol-4-yl)-4-(3-(dimethylamino)azetidin-1-yl)-6-fluoro-1H-imidazo[4,5-c]quinolin-1-yl)piperidin-2-yl)acetonitrile] | ≤ 100 nM | ≤ 100 nM |
| Cc1c(Cl)cc2[nH]ncc2c1-c1c(Cl)cc2c(nc(N3CC(N(C)C)C3)c3nnn([C@H]4CCN(C(=O)/C=C/CN(C)C)[C@H](CC#N)C4)c32)c1F [Example 179a, 2-((2S,4S)-4-(8-chloro-7-(6-chloro-5-methyl-1H-indazol-4-yl)-4-(3-(dimethylamino)-azetidin-1-yl)-6-fluoro-1H-[1,2,3]triazolo[4,5-c]quinolin-1-yl)-1-((E)-4-(dimethyl-amino)but-2-enoyl)piperidin-2-yl)acetonitrile] | ≤ 100 nM | ≤ 100 nM |
| CC#CC(=O)N1CC[C@H](n2cnc3c(OC[C@@H]4CCCN4C)nc4c(F)c(-c5c(C)c(Cl)cc6[nH]ncc56)c(Cl)cc4c32)C[C@H]1CC#N [Example 180, 2-((2S,4S)-1-(but-2-ynoyl)-4-(8-chloro-7-(6-chloro-5-methyl-1H-indazol-4-yl)-6-fluoro-4-(((S)-1-methylpyrrolidin-2-yl)methoxy)-1H-imidazo[4,5-c]quinolin-1-yl)piperidin-2-yl)acetonitrile] | ≤ 100 nM | ≤ 100 nM |
| Cc1c(Cl)cc2[nH]ncc2c1-c1c(Cl)cc2c(nc(OC[C@@H]3CCCN3C)c3ncn([C@H]4CCN(C(=O)/C=C/CN(C)C)[C@H](CC#N)C4)c32)c1F [Example 181a, 2-((2S,4S)-4-(8-chloro-7-(6-chloro-5-methyl-1H-indazol-4-yl)-6-fluoro-4-(((S)-1-methylpyrrolidin-2-yl)-methoxy)-1H-imidazo[4,5-c]quinolin-1-yl)-1-((E)-4-(dimethylamino)but-2-enoyl)piperidin-2-yl)acetonitrile] | ≤ 100 nM | ≤ 100 nM |
| CC#CC(=O)N1CC[C@H](n2nnc3c(OC[C@@H]4CCCN4C)nc4c(F)c(-c5c(C)c(Cl)cc6[nH]ncc56)c(Cl)cc4c32)C[C@H]1CC#N [Example 182, 2-((2S,4S)-1-(but-2-ynoyl)-4-(8-chloro-7-(6-chloro-5-methyl-1H-indazol-4-yl)-6-fluoro-4-(((S)-1-methylpyrrolidin-2-yl)methoxy)-1H-[1,2,3]triazolo[4,5-c]quinolin-1-yl)piperidin-2-yl)acetonitrile] | ≤ 100 nM | ≤ 100 nM |
| Cc1c(Cl)cc2[nH]ncc2c1-c1c(Cl)cc2c(nc(OC[C@@H]3CCCN3C)c3nnn([C@H]4CCN(C(=O)/C=C/CN(C)C)[C@H](CC#N)C4)c32)c1F [Example 183a, 2-((2S,4S)-4-(8-chloro-7-(6-chloro-5-methyl-1H-indazol-4-yl)-6-fluoro-4-(((S)-1-methylpyrrolidin-2-yl)-methoxy)-1H-[1,2,3]triazolo-[4,5-c]quinolin-1-yl)-1-((E)-4-(dimethylamino)but-2-enoyl)piperidin-2-yl)acetonitrile] | ≤ 100 nM | ≤ 100 nM |

— patent US20210269434A1, “TRICYCLIC COMPOUNDS AS INHIBITORS OF KRAS” (Incyte Corporation, priority 2020, published 2021)
